# ChEMBL document CHEMBL1201862, “PubChem BioAssay data set” (2004)
#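 Method: 48-hour compound exposure of cells in 96-well plates, five concentrations, linear interpolation of endpoints. GI50: concentration for 50% inhibition of growth.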 Active and inactive are the calls of the source. No stated cut-off is given here; in the data, active = GI50 up to about 1.1 µM and inactive = higher.
# Tests used:
# Test in all cases: NCI anticancer screen, dose series, 48 h
# [1] = test system: RXF 393
# [2] = test system: SK-MEL-2
# [3] = test system: KM12
# [4] = test system: OVCAR-4
# [5] = test system: Malme-3M
# [6] = test system: K562
# [7] = test system: CAKI-1
# [8] = test system: SK-MEL-28
# [9] = test system: DMS-273
# [10] = test system: HOP-18
# [11] = test system: DLD-1
# [12] = test system: NCI-H23
# [13] = test system: SF-539
# [14] = test system: XF498
# [15] = test system: ACHN
# [16] = test system: HT-29
# [17] = test system: UACC-62
# [18] = test system: OVCAR-5
# [19] = test system: HOP-92
# [20] = test system: U-251
# [21] = test system: 786-0
# [22] = test system: M19-MEL
# [23] = test system: UACC-257
# [24] = test system: RPMI-8226
# [25] = test system: M14
# [26] = test system: LOX IMVI
# [27] = test system: SNB-78
# [28] = test system: NCI-H522
# [29] = test system: NCI-H226
# [30] = test system: IGROV-1
# [31] = test system: HOP-62
# [32] = test system: CCRF-CEM
# [33] = test system: LXFL 529
# [34] = test system: SF-295
# [35] = test system: KM-20L2
# [36] = test system: OVCAR-3
# [37] = test system: HL-60
# [38] = test system: MOLT-4
# [39] = test system: SN12C
# [40] = test system: NCI-H460
# [41] = test system: SK-MEL-5
# [42] = test system: DMS-114
# [43] = test system: HCC 2998
# [44] = test system: COLO 205
# [45] = test system: A549
# [46] = test system: SNB-19
# [47] = test system: SW-620
# [48] = test system: SK-OV-3
# [49] = test system: OVCAR-8
# [50] = test system: EKVX
# [51] = test system: HCT-15
# [52] = test system: SNB-75
# [53] = test system: TK-10
# [54] = test system: HCT-116
# [55] = test system: SR
smiles,measurement,setting,value
O=c1cc(-c2ccccc2)oc2cc(OCCCOc3ccc4c(=O)cc(-c5ccccc5)oc4c3)ccc12,GI50,[1],> 100 µM (inactive)
same,GI50,[2],> 100 µM (inactive)
same,GI50,[3],> 100 µM (inactive)
same,GI50,[4],> 100 µM (inactive)
same,GI50,[5],> 100 µM (inactive)
same,GI50,[6],> 100 µM (inactive)
same,GI50,[7],> 100 µM (inactive)
same,GI50,[8],> 100 µM (inactive)
same,GI50,[9],> 100 µM (inactive)
same,GI50,[10],> 100 µM (inactive)
same,GI50,[11],> 100 µM (inactive)
same,GI50,[12],> 100 µM (inactive)
same,GI50,[13],> 100 µM (inactive)
same,GI50,[14],> 100 µM (inactive)
same,GI50,[15],> 100 µM (inactive)
same,GI50,[16],> 100 µM (inactive)
same,GI50,[17],> 100 µM (inactive)
same,GI50,[18],> 100 µM (inactive)
same,GI50,[19],> 100 µM (inactive)
same,GI50,[20],> 100 µM (inactive)
same,GI50,[21],> 100 µM (inactive)
same,GI50,[22],> 100 µM (inactive)
same,GI50,[23],> 100 µM (inactive)
same,GI50,[24],> 100 µM (inactive)
same,GI50,[25],> 100 µM (inactive)
same,GI50,[26],> 100 µM (inactive)
same,GI50,[27],> 100 µM (inactive)
same,GI50,[28],> 100 µM (inactive)
same,GI50,[29],> 100 µM (inactive)
same,GI50,[30],> 100 µM (inactive)
same,GI50,[31],> 100 µM (inactive)
same,GI50,[32],> 100 µM (inactive)
same,GI50,[33],> 100 µM (inactive)
same,GI50,[34],> 100 µM (inactive)
same,GI50,[35],> 100 µM (inactive)
same,GI50,[36],> 100 µM (inactive)
same,GI50,[37],> 100 µM (inactive)
same,GI50,[38],> 100 µM (inactive)
same,GI50,[39],> 100 µM (inactive)
same,GI50,[40],> 100 µM (inactive)
same,GI50,[41],> 100 µM (inactive)
same,GI50,[42],> 100 µM (inactive)
same,GI50,[43],> 100 µM (inactive)
same,GI50,[44],> 100 µM (inactive)
same,GI50,[45],> 100 µM (inactive)
same,GI50,[46],> 100 µM (inactive)
same,GI50,[47],> 100 µM (inactive)
same,GI50,[48],> 100 µM (inactive)
same,GI50,[49],> 100 µM (inactive)
same,GI50,[50],> 100 µM (inactive)
same,GI50,[51],> 100 µM
same,GI50,[52],47.2 µM (inactive)
same,GI50,[53],> 100 µM (inactive)
same,GI50,[54],> 100 µM (inactive)
same,GI50,[55],> 100 µM (inactive)
